Measured values as given in patent US8158638B2, “Pyrazolopyrimidine derivative” (Daiichi Sankyo Company, Limited, priority 2006, dated 2012).
Structures can show the parent of a compound that is named as a salt. Where two headings read alike, the source gives them in different places.

Key:
[1] = test system: human breast cancer cell line SK-BR-3; experiment: Cell growth inhibition assay (MTT), SK-BR-3; type: cell-based; conditions: Homo sapiens, read-out: GI50 value (50% growth inhibitory concentration)
Protocol: (§1) A cell growth inhibition assay was performed using two types of cells (human breast cancer cell line SK-BR-3 and human lung cancer cell line NCI-H460).
(§2) Cells of each type were suspended in a medium and seeded into a 96-well multi-well plate at 500 cells/150 μl/well. The test compound was dissolved in DMSO, and this was diluted with medium to prepare a sample solution (DMSO concentration: 0.5% or less). On the day following the seeding, 50 μL of DMSO-containing medium to which the test compound was not added (hereinafter called DMSO diluted solution; DMSO concentration: 0.5% or less) or the sample solution was added to the cells. An MTT assay was performed immediately after and 72 hours after adding the sample solution or the DMSO diluted solution to the cells. The MTT assay was performed as follows.
(§3) 5 mg/mL of an MTT (3-(4,5-dimethylthiazol-2-yl)-2,5-diphenyltetrazolium bromide) solution was added at 20 μL per well. Thereafter, the plate was incubated at 37° C. in 5% CO2 for four hours. The plate was centrifuged at 1200 rpm for five minutes, and then the culture supernatant was removed by suction using a dispenser. DMSO was added at 150 μL per well, and the generated formazan was dissolved. The plate was stirred using a plate mixer to uniformly color the respective wells. The absorbance of each well was measured using a plate reader at an OD of 540 nm with a reference of 660 nm.
(§4) T/C (%) for each concentration was determined by the following calculation formula and a dose-response curve was drawn to calculate the 50% growth inhibitory concentration (GI50 value), based on the assumption that the OD value measured immediately after adding the sample solution was S, the OD value measured 72 hours after adding the sample solution was T, and the OD value measured 72 hours after adding the DMSO diluted solution was C. T/C(%)=(T−S)/(C−S)×100

[2] = test system: human lung cancer cell line NCI-H460; experiment: Cell growth inhibition assay (MTT), NCI-H460; type: cell-based; conditions: Homo sapiens, read-out: GI50 value (50% growth inhibitory concentration)
Protocol: as §1, §2, §3, §4

[3] = target: T1, recombinant yeast Hsp90 protein (rHsp90) (Saccharomyces cerevisiae, UniProt P02829); experiment: Hsp90 ATPase assay; type: biochemical; conditions: rHsp90 100 μg/mL, ATP 100 μM, 37° C., two hours, BIOMOL GREEN; read-out: IC50 value (concentration for 50% inhibition of ATP activity)
T1 construct: made in house; host or cells: Escherichia coli
T1 sequence (P02829 whole entry): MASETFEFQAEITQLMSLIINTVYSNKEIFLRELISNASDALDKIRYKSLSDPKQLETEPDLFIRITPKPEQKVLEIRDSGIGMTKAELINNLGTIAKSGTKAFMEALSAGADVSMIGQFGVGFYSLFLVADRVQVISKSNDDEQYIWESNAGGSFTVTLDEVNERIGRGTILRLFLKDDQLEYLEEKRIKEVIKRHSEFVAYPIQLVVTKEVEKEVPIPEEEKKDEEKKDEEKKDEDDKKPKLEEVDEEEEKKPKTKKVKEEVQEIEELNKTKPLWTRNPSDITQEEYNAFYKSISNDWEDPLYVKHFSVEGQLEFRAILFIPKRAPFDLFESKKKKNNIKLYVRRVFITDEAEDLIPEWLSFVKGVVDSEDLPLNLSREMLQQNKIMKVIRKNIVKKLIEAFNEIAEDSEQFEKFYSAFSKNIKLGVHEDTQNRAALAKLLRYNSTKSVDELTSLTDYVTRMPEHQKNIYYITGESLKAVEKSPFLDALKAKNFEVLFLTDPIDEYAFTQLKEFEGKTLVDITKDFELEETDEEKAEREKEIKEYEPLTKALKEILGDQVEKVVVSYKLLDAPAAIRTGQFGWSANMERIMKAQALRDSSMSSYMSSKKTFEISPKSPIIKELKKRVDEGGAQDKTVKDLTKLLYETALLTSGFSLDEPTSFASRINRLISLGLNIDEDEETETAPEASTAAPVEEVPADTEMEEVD
Protocol: An Hsp90 ATPase assay was performed using a recombinant yeast Hsp90 protein (hereinafter called rHsp90). Yeast Hsp90 DNA was cloned from a yeast genomic DNA library according to a conventional method. The cloned yeast Hsp90 DNA was incorporated into a plasmid for expression in Escherichia coli, and the plasmid was expressed in Escherichia coli to obtain rHsp90.
The test compound was dissolved in DMSO to 10 mM. The dissolved solution was diluted with DMSO to eight concentrations ranging in three-fold dilutions from 4 mM. Each diluted solution was further 10-fold diluted with an assay buffer (100 mM Tris, pH 7.4, 20 mM KCl, 6 mM MgCl2) (concentration of each test compound solution: 400 μM, 133 μM, 44.4 μM, 14.8 μM, 4.94 μM, 1.65 μM, 0.549 μM, 0.183 μM; DMSO concentration: 10%).
rHsp90 was dissolved in a TE buffer (20 mM Tris, pH 7.4, 1 mM EDTA) to a concentration of 2.531 mg/mL. The dissolved solution was diluted with assay buffer to 125 μg/mL and dispensed to a 96-well assay plate at 40 μL per well (final concentration: 100 μg/mL).
The test compound solution was dispensed at 5 μL per well, and then the solutions in the respective wells were mixed using a plate mixer. 100 mM ATP (Sigma, Catalog No. A-7699) was diluted with assay buffer to 1 mM and dispensed at 5 μL per well (final concentration: 100 μM). The solutions in the respective wells were mixed using a plate mixer, and then the assay plate was allowed to stand in an incubator set at 37° C. for two hours.
BIOMOL GREEN Reagent (BIOMOL, Catalog No. AK-111) was dispensed at 100 μL per well, and the reaction was terminated. The solutions in the respective wells were mixed by pipetting (three times), and then 34% sodium citrate was dispensed at 10 μL per well. The solutions in the respective wells were mixed by pipetting (three times), and then the assay plate was left to stand at room temperature for 10 minutes. The absorbance at 630 nm of each well was measured with a microplate reader.
The ratio of the absorbance of the test compound-added group to the absorbance of the test compound-free group (T/C value) was determined by the following calculation formula, based on the assumption that the absorbance of the well to which the test compound and rHsp90 were added was A, the absorbance of the well to which only rHsp90 was added was B, and the absorbance of the well to which neither the test compound nor rHsp90 was added was C. T/C=(A−C)/(B−C)
Further, the concentration for 50% inhibition of ATP activity (IC50 value) was calculated using GraphPad Prism 4 (GraphPad Software, Inc.).

GI50 ([1]; SK-BR-3, MTT assay, 72 hours)	GI50 ([2]; NCI-H460, MTT assay, 72 hours)	IC50 [3]	Structure (SMILES)	GI50 ([1]; SK-BR-3, 72 h)	GI50 ([2]; NCI-H460, 72 h)
0.058 µM	0.15 µM	2.4 µM	COc1c(C)cnc(Cn2nc3c4c(nc(N)nc42)SCC(NC2CC2)C3)c1C (centres unmarked) [Example 51, N^8-Cyclopropyl-2-[(4-methoxy-3,5-dimethylpyridin-2-yl)methyl]-2,7,8,9-tetrahydro-6-thia-1,2,3,5-tetraazabenzo[cd]azulene-4,8-diamine hydrochloride]		
		3.4 µM	Nc1nc2c3c(nn(Cc4nc5cccc(Cl)c5s4)c3n1)CCS2 [Example 174, 2-[(7-Chloro-1,3-benzothiazol-2-yl)methyl]-7,8-dihydro-2H-6-thia-1,2,3,5-tetraazaacenaphthylen-4-amine]		
0.044 µM	0.069 µM	0.87 µM	COc1c(C)cnc(Cn2nc3c4c(nc(N)nc42)SC(C#N)C3)c1C (centres unmarked) [Example 4, 4-Amino-2-[(4-methoxy-3,5-dimethylpyridin-2-yl)methyl]-7,8-dihydro-2H-6-thia-1,2,3,5-tetraazaacenaphthylene-7-carbonitrile]		
3.3 µM	7.3 µM	5.4 µM	Nc1nc2c3c(nn(Cc4ccc5c(c4)OCO5)c3n1)CCS2 [Example 167, 2-(1,3-Benzodioxol-5-ylmethyl)-7,8-dihydro-2H-6-thia-1,2,3,5-tetraazaacenaphthylen-4-amine]		
0.017 µM	0.037 µM	1.8 µM	COc1c(C)cnc(Cn2nc3c4c(nc(N)nc42)SC(C(=O)Nc2ncc(C)s2)C3)c1C (centres unmarked) [Example 194, 4-Amino-2-[(4-methoxy-3,5-dimethylpyridin-2-yl)methyl]-N-(5-methyl-1,3-thiazol-2-yl)-7,8-dihydro-2H-6-thia-1,2,3,5-tetraazaacenaphthylene-7-carboxamide]		
0.307 µM	0.411 µM	3.3 µM	CNC(=O)OC1CSc2nc(N)nc3c2c(nn3Cc2ncc(C)c(OC)c2C)C1 (centres unmarked) [Example 37, 4-Amino-2-[(4-methoxy-3,5-dimethylpyridin-2-yl)methyl]-2,7,8,9-tetrahydro-6-thia-1,2,3,5-tetraazabenzo[cd]azulen-8-yl methylcarbamate]		
		0.89 µM	CCc1c(C)cnc(Cn2nc3c4c(nc(N)nc42)SCC3)c1C [Example 176, 2-[(4-Ethyl-3,5-dimethylpyridin-2-yl)methyl]-7,8-dihydro-2H-6-thia-1,2,3,5-tetraazaacenaphthylen-4-amine]		
0.02 µM	0.057 µM	1.5 µM	COc1c(C)cnc(Cn2nc3c4c(nc(N)nc42)SC(C(=O)Nc2nccs2)C3)c1C (centres unmarked) [Example 191, 4-Amino-2-[(4-methoxy-3,5-dimethylpyridin-2-yl)methyl]-N-(1,3-thiazol-2-yl)-7,8-dihydro-2H-6-thia-1,2,3,5-tetraazaacenaphthylene-7-carboxamide]		
0.052 µM	0.086 µM	0.97 µM	COc1c(C)cnc(Cn2nc3c4c(nc(N)nc42)SCC=C3)c1C [Example 36, 2-[(4-Methoxy-3,5-dimethylpyridin-2-yl)methyl]-2,7-dihydro-6-thia-1,2,3,5-tetraazabenzo[cd]azulen-4-amine]		
0.13 µM	0.3 µM	1.2 µM	COc1c(C)cnc(Cn2nc3c4c(nc(N)nc42)SCC(N2CCC[C@H]2C(N)=O)C3)c1C (stereo partly drawn) [Example 67, 1-{4-Amino-2-[(4-methoxy-3,5-dimethylpyridin-2-yl)methyl]-2,7,8,9-tetrahydro-6-thia-1,2,3,5-tetraazabenzo[cd]azulen-8-yl}-L-prolinamide]		
0.41 µM	0.76 µM	0.97 µM	COc1ccnc(Cn2nc3c4c(nc(N)nc42)SCC3)c1C [Example 164, 2-[(4-Methoxy-3-methylpyridin-2-yl)methyl]-7,8-dihydro-2H-6-thia-1,2,3,5-tetraazaacenaphthylen-4-amine]		
		1.5 µM	Nc1nc2c3c(nn(Cc4cc5c(cn4)OCCO5)c3n1)CCS2 [Example 172, 2-(2,3-Dihydro[1,4]dioxino[2,3-c]pyridin-7-ylmethyl)-7,8-dihydro-2H-6-thia-1,2,3,5-tetraazaacenaphthylen-4-amine]		
		1.2 µM	Cc1cnc(Cn2nc3c4c(nc(N)nc42)SCC3)c(C)c1Cl [Example 175, 2-[(4-Chloro-3,5-dimethylpyridin-2-yl)methyl]-7,8-dihydro-2H-6-thia-1,2,3,5-tetraazaacenaphthylen-4-amine]		
		0.76 µM	COc1c(C)cnc(Cn2nc3c4c(nc(N)nc42)SCC(CO)=C3)c1C [Example 214, {4-Amino-2-[(4-methoxy-3,5-dimethylpyridin-2-yl)methyl]-2,7-dihydro-6-thia-1,2,3,5-tetraazabenzo[cd]azulen-8-yl}methanol]		

Structure (SMILES)	GI50 ([1]; SK-BR-3, MTT assay, 72 hours)	GI50 ([2]; NCI-H460, MTT assay, 72 hours)	IC50 [3]	GI50 ([1]; SK-BR-3, 72 h)	GI50 ([2]; NCI-H460, 72 h)
COc1c(C)cnc(Cn2nc3c4c(nc(N)nc42)SCC(CCO)=C3)c1C [Example 111, 2-{4-Amino-2-[(4-methoxy-3,5-dimethylpyridin-2-yl)methyl]-2,7-dihydro-6-thia-1,2,3,5-tetraazabenzo[cd]azulen-8-yl}ethanol]			0.81 µM	0.049 µM	0.094 µM
CCNC(=O)CC1=Cc2nn(Cc3ncc(C)c(OC)c3C)c3nc(N)nc(c23)SC1 [Example 118, 2-{4-Amino-2-[(4-methoxy-3,5-dimethylpyridin-2-yl)methyl]-2,7-dihydro-6-thia-1,2,3,5-tetraazabenzo[cd]azulen-8-yl}-N-ethylacetamide]			0.61 µM	0.033 µM	0.51 µM
COc1c(C)cnc(Cn2nc3c4c(nc(N)nc42)SCC(C(=O)N2CCC(F)(F)C2)=C3)c1C [Example 218, 8-[(3,3-Difluoropyrrolidin-1-yl)carbonyl]-2-[(4-methoxy-3,5-dimethylpyridin-2-yl)methyl]-2,7-dihydro-6-thia-1,2,3,5-tetraazabenzo[cd]azulen-4-amine]			2.3 µM	0.075 µM	0.16 µM
COc1c(C)cnc(Cn2nc3c4c(nc(N)nc42)SCC(CCN2CCCCC2)=C3)c1C [Example 145, 2-[(4-Methoxy-3,5-dimethylpyridin-2-yl)methyl]-8-(2-piperidin-1-ylethyl)-2,7-dihydro-6-thia-1,2,3,5-tetraazabenzo[cd]azulen-4-amine]			0.89 µM	0.019 µM	0.045 µM
COc1c(C)cnc(Cn2nc3c4c(nc(N)nc42)SCC(CCn2ccnc2)=C3)c1C [Example 137, 8-[2-(1H-Imidazol-1-yl)ethyl]-2-[(4-methoxy-3,5-dimethylpyridin-2-yl)methyl]-2,7-dihydro-6-thia-1,2,3,5-tetraazabenzo[cd]azulen-4-amine]			0.95 µM	0.067 µM	0.2 µM
